# Assay results as given in patent US20030130180A1, “Utilization of an aminopeptidase inhibitor” (priority 2000, published 2003).
# Tests used:
# tumor cells [1] = conditions: cited from earlier work; for tumor cell invasion: in vitro, matrigel analytic system
# [2] = test system: tumor cells and immune cells; assay: Cell-biological experiments on blocking of polarization of tumor cells and immune cells; format: cell-based; conditions: general statement
# Excerpt: By means of a method of simultaneously detecting a number of cell surface proteins, it has been established that aminopeptidases will control cell surface proteins which are not part of the class of proteolytic enzymes, but belong to the class of the adhesion molecules, which adhesion molecules—in a certain combination and geometric array—will be decisive for the polarization of the cells. Consequently, aminopeptidases appear to be superordinate control proteins in a protein network consisting of up to 30 different cell surface protein species which—through specific interaction with one another—will control polarization of tumor cells and other invasive cells such as immune cells and which are listed above. The inhibition of at least one aminopeptidase will lead to a reproducible modification of surface protein combinations on the cell surface which will always also involve a modification of CD13. […] The term polarization as used here shall denote a process in which a primarily spherical cell will transition into an oblong, elongated cell shape, via various intermediate states. This process which constitutes a change of shape controlled by the complex protein network is the prerequisite for cell migration, since only cells of oblong shape are capable of migrating. The polarization process therefore needs to precede all cell migration processes, including invasion. […]
# tumor cells [3] = conditions: cited from earlier work
SMILES,formation of cell extensions (tumor cells [1]),tumor cell invasion (tumor cells [1]),modification of the surface proteins of the protein network [2],degradation of type IV collagen (tumor cells [3]),invasion of tumor cells (tumor cells [3]),tumor cell adhesion and migration to the extracellular matrix (tumor cells [3])
CCc1cccc(CC)c1N1C(=O)Cc2ccccc2C1=O [PIQ-22],suppression of the formation of cell extensions,inhibition of the invasion,–,–,–,–
CC(C)C[C@H](NC(=O)[C@@H](O)[C@H](N)Cc1ccccc1)C(=O)O [bestatin],no effect,do not have an effect,leading to a modification of the surface proteins of the protein network,capable of preventing degradation of the type IV collagen,preventing the invasion of tumor cells,does not have any influence
